Results published in ChEMBL document CHEMBL1201862, “PubChem BioAssay data set” (2004).
Activity calls are given as the source filed them.

Experiments:
[1] = molecular target: Luciferin 4-monooxygenase (Photinus pyralis, UniProt P08659); assay: firefly luciferase enzyme inhibitors, dose response, biochemical, luminescence (AID 1891)
cells [2] = assay: cells
[3] = Luminescence Cell-Based Dose Confirmation HTS to Identify Inhibitors of Platelet Dense Granule Release. [Related pubchem assays: 1663 (Primary HTS), 1678 (Summary of Project)]; type: functional
[4] = molecular target: T1, Oxysterols receptor LXR-beta (Homo sapiens, UniProt P55055); type: functional, cell-based;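 also: Cell-based luminescence dose-response assay of agonist activity at LXR, run as a confirmatory counterscreen to a daf-12 agonist screen; HEK293 cells with Gal4-LXR fusion and GAL4-driven luciferase reporter; agonist potency from rising luciferase signal of a Gal4-LXR reporter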
T1 sequence (P55055 whole entry): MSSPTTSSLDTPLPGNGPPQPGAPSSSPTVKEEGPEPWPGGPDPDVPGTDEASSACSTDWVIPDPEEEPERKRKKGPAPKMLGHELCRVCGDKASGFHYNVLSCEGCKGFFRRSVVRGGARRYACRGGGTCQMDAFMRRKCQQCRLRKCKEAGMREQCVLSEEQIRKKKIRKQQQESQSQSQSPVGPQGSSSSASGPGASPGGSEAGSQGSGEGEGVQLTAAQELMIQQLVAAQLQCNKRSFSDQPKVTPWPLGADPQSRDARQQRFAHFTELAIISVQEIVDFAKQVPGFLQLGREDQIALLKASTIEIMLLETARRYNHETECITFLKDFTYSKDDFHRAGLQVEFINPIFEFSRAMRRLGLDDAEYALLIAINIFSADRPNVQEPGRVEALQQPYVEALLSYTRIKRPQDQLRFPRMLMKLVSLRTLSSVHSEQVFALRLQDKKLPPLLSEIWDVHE

[5] = molecular target: T2, Polyadenylate-binding protein 1 (Homo sapiens, UniProt P11940); assay: PABP1 MLLE–PAM2 interaction inhibitors, dose response, miRNA deadenylation inhibitor project, biochemical, fluorescence polarization, Cy5-PAM2 peptide, secondary (AID 602260); type: functional; settings: read-out: IC50_Mean
T2 sequence (P11940 whole entry): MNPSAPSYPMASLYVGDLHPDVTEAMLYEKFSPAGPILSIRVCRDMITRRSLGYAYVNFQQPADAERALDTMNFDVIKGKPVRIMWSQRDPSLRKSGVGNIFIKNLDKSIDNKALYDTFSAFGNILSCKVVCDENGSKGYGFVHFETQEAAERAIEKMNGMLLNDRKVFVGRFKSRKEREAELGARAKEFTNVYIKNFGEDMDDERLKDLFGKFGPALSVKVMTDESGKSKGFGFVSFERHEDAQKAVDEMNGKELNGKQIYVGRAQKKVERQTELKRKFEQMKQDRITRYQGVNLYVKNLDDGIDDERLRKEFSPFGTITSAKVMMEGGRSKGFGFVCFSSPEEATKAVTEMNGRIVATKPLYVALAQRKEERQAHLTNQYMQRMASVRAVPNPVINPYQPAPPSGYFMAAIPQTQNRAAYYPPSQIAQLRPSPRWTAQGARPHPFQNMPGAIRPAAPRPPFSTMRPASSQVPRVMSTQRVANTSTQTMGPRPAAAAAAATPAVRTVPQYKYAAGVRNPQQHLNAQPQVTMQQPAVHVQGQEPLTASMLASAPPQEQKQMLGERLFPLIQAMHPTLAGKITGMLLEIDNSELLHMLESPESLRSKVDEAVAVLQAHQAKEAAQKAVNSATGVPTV

[6] = molecular target: SWI/SNF-related matrix-associated actin-dependent regulator of chromatin subfamily A member 2 (Homo sapiens, UniProt P51531); assay: Luminescence-based cell-based high throughput dose response assay to identify activators of the function of SWI/SNF related, matrix associated, actin dependent regulator of chromatin, subfamily a, member 2 (SMARCA2, BRM).; type: functional
Chain of SWI/SNF-related matrix-associated actin-dependent regulator of chromatin subfamily A member 2 (P51531 whole entry): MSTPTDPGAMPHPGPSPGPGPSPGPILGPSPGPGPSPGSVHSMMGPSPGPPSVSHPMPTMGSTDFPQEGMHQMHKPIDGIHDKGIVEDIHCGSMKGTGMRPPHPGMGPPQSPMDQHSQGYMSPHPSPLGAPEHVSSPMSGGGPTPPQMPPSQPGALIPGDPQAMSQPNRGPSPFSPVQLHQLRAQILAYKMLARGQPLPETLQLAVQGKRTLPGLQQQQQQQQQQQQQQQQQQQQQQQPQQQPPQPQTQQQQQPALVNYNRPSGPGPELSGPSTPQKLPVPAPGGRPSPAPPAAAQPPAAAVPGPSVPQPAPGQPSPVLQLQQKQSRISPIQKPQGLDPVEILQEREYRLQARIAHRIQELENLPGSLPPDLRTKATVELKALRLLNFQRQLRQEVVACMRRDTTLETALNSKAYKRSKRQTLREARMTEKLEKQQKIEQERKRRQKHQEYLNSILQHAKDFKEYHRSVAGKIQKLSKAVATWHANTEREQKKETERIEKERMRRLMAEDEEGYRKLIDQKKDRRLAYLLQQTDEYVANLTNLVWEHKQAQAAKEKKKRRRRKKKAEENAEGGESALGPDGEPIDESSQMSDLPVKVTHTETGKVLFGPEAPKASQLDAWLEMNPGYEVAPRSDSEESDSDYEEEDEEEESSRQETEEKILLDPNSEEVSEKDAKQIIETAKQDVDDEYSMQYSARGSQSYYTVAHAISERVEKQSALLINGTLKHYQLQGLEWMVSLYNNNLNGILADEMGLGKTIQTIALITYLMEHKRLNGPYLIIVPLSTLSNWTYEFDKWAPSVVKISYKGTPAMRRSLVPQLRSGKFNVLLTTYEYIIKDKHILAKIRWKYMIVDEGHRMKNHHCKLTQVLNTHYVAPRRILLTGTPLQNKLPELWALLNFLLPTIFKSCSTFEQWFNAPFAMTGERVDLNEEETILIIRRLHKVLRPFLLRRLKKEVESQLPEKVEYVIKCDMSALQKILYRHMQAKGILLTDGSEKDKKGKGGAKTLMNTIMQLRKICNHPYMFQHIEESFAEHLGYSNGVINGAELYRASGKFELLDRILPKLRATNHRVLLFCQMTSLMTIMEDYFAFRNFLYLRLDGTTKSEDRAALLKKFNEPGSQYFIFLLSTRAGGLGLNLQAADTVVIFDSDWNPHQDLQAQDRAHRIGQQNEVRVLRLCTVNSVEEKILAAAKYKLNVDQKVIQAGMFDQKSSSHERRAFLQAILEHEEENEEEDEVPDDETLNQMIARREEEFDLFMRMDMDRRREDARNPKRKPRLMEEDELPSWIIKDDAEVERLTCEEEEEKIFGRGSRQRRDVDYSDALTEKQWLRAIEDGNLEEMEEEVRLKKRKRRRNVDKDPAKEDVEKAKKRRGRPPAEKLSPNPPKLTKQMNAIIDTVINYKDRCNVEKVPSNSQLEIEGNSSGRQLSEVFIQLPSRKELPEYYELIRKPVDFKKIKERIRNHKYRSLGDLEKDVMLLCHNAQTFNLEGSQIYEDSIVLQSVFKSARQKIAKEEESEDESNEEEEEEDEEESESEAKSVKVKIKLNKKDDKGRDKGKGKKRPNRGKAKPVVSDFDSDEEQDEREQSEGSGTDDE

[7] = Counterscreen for activators of the function of SWI/SNF related, matrix associated, actin dependent regulator of chromatin, subfamily a, member 2 (SMARCA2, BRM): Luminescence-based cell-based high throughput dose response assay to identify non-selective compounds using the VP16 reporter assay.; type: functional
[8] = molecular target: T2, Polyadenylate-binding protein 1; assay: PABP1 MLLE–PAM2 binding inhibitor potency, dose response, biochemical, fluorescence polarization, FITC-PAM2 peptide (AID 602259); type: functional; settings: read-out: IC50_Mean
[9] = A375 melanoma cell cytotoxicity, dose response, counter-screen for MITF inhibitor project, CellTiter-Glo luminescence, dry powder, set 2 (AID 624489); type: functional, cell-based; settings: A-375;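 also: actives are compounds lowering A375 viability meaning general cytotoxicity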
[10] = A375 melanoma cell viability loss, dose response, counter-screen for MITF inhibitor project, CellTiter-Glo luminescence, dry powder, set 4 (AID 624364); type: functional, cell-based; settings: A-375;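 also: A375 melanoma cells are MITF independent so this is a counter screen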
[11] = A549 cell cytotoxicity, dose response, cytotoxicity control, 24 h, CellTiter-Glo luminescence, cherry-picks (AID 1053115); type: functional, cell-based; settings: A549, 24 h
A549 = assay: A549 cell toxicity, dose response, cytotoxicity control, plate reader, cherry-pick samples (AID 687028); type: functional, cell-based; settings: Homo sapiens
Vero = assay: Vero cell toxicity, dose response, cytotoxicity control, plate reader, cherry-pick samples (AID 687020); type: functional, cell-based; settings: Chlorocebus sabaeus
[12] = Late stage assay provider results from the probe development effort to identify selective inhibitors of heat shock protein 90 (HSP90): Absorbance-based cell proliferation assay in MCF7 cells.; type: functional
[13] = Late stage assay provider results from the probe development effort to identify selective inhibitors of heat shock protein 90 (HSP90): Absorbance-based cell proliferation assay in SKBR3 cells.; type: functional; settings: SK-BR-3
Galanin receptor type 3 = Galanin receptor type 3 (Homo sapiens, UniProt O60755); assay: Fluorescence-based cell-based primary high throughput dose response assay to identify antagonists of the Galanin Receptor 3 (GalR3).; type: functional
Chain of Galanin receptor type 3 (O60755 whole entry): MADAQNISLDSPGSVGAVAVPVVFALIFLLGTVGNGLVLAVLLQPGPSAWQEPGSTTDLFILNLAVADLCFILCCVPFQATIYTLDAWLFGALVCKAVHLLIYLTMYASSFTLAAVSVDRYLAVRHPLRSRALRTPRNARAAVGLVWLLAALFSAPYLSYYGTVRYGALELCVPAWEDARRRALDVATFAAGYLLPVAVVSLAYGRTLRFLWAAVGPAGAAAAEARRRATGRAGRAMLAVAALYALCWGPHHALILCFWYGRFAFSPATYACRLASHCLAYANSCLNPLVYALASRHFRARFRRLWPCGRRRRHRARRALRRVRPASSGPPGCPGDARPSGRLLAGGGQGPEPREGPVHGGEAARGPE

cells [14] = type: functional, cell-based; settings: HEK-CNG
[15] = molecular target: NAD-dependent protein deacylase sirtuin-5, mitochondrial (Homo sapiens, UniProt Q9NXA8); assay: SIRT5 deacylase inhibitors, dose response, biochemical, fluorescence imaging, cherry-pick, set 6 (AID 720597)
Chain of NAD-dependent protein deacylase sirtuin-5, mitochondrial (Q9NXA8 whole entry): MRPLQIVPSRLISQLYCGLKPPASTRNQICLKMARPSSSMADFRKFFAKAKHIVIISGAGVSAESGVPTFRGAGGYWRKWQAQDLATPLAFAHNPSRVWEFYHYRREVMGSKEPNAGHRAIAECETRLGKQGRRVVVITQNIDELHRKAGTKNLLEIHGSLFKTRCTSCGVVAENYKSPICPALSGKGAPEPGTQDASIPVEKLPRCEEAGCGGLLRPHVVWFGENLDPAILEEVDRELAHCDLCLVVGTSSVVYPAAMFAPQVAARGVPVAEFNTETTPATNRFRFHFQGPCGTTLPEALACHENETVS

[16] = molecular target: COUP transcription factor 2 (Homo sapiens, UniProt P24468); assay: Luminescence-based cell-based high throughput dose response assay to identify inhibitors of COUP-TFII (NR2F2).; type: functional;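 also: HEK293 cells transiently cotransfected with COUP-TFII expression vector and reporter; luciferase reporter luminescence driven by COUP-TFII from the pX2-168 reporter plasmid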
Chain of COUP transcription factor 2 (P24468 whole entry): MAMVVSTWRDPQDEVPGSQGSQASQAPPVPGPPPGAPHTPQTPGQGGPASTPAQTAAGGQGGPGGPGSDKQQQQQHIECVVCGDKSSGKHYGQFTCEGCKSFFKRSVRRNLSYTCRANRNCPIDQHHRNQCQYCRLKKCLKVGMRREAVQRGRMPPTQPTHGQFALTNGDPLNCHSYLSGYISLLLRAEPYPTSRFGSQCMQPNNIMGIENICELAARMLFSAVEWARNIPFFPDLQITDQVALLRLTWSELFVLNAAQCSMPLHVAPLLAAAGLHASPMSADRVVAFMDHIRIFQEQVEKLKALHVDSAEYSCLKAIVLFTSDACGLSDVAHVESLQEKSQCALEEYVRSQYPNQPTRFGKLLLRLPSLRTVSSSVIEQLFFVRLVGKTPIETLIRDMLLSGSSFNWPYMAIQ

[17] = microbe, parasite or virus in culture; type: functional; settings: Mycobacterium tuberculosis
[18] = T. cruzi intracellular amastigote growth inhibition, dose response, imaging, CA-I/72 strain, bovine embryo skeletal muscle, dry powder (AID 651885); type: functional, cell-based

Chain of Luciferin 4-monooxygenase (P08659 whole entry): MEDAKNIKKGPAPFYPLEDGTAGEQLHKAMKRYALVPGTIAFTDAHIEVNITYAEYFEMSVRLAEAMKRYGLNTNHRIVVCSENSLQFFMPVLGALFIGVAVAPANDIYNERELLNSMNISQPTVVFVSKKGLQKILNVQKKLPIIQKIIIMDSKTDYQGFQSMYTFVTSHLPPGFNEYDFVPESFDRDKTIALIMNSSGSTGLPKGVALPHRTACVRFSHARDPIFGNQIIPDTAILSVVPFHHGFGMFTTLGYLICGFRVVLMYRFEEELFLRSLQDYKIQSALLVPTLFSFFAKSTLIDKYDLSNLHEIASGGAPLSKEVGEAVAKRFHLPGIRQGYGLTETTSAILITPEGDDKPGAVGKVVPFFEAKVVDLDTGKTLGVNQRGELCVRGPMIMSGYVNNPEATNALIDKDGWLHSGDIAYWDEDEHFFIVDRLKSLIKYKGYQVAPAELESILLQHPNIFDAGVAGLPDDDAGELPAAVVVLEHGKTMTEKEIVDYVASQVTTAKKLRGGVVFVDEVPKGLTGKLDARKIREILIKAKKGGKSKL

Structure (SMILES): N=C(NOC(=O)c1ccc(Cl)cc1Cl)c1ccccc1
- EC50 [1]: 1.06 µM (active)
- EC50 (cells [2]): > 67.5 µM (inactive)
- EC50 [3]: 6.01 µM (active)
- EC50 [4]: > 67.5 µM (inactive)

Structure (SMILES): Cn1sccc1=O
- IC50 [5]: > 66 µM (inactive)
- EC50 [6]: > 91.2 µM (inactive)
- EC50 [7]: > 91.2 µM (inactive)
- IC50 [8]: > 66 µM (inactive)

Structure (SMILES): Cc1ccc(C(=O)NC2=C(c3ccc(OC(F)(F)F)cc3)C(=O)c3ccccc3C2=O)o1
- AC50 [9]: 21.3 µM (active)
- AC50 [10]: 33.4 µM (active)

Structure (SMILES): COc1ccccc1CN1CC[C@@H]2[C@@H](CO)Nc3ccc(C#Cc4ccccc4)cc3[C@@H]21
- AC50 [11]: > 60 µM (inactive)

Structure (SMILES): COc1ccccc1C(=O)N1[C@@H](C(C)C)COc2cc(Br)ccc2S1(=O)=O
- AC50 (A549): 24.4 µM (active)
- AC50 (Vero): 28 µM (active)

Structure (SMILES): COc1ccc(NC(=O)c2coc(=O)c(Br)c2)cc1
- IC50 [12]: 2.4 µM (active)
- IC50 [13]: 8.2 µM (active)

Structure (SMILES): COc1cccc2[nH]c3c(N4CCCC(C)C4)ncnc3c12 (stereo unspecified)
- IC50 (Galanin receptor type 3): 0.4 µM (active)
- EC50 (cells [14]): > 29.9 µM (inactive)

Structure (SMILES): C[C@@H]1CN([C@H](C)CO)S(=O)(=O)c2ccc(/C=C/c3ccccc3)cc2O[C@H]1CN(C)C(=O)Nc1cc(F)ccc1F
- AC50 [15]: > 30 µM (inactive)

Structure (SMILES): C/C(=N\NC(N)=S)C1C2C3CC4C5CC(C42)C1C53 (stereo unspecified)
- IC50 [16]: 6.4 µM (active)
- CC50 [17]: > 40 µM (active)

Structure (SMILES): C[C@@H]1CN([C@@H](C)CO)C(=O)c2cccc(NC(=O)c3ccncc3)c2O[C@H]1CN(C)C
- IC50 [18]: > 20 µM (inactive)
